Results: patent publication US20230295113A1, “NLRP3 MODULATORS” (ZOMAGEN BIOSCIENCES LTD, priority 2022, published 2023)
pIC50: −log10 of the molar value.

The compounds below were run on IL-1b (assay: Human Monocyte IL-1b Assay). Details: Homo sapiens, Monocyte, fresh human whole blood; compound 0.5 h, 100 ng/mL LPS 3.5 h at 37° C., 5 mM ATP 45 min; IL-1b in supernatant by ELISA.
Assay type: cell-based
Protocol: Example 46: Human Monocyte IL-1b Assay
Serially diluted testing compounds were incubated with […] of fresh human whole blood for 0.5 hours. Cells were primed with 100 ng/mL lipopolysaccharide (LPS) for 3.5 hours at 37° C. followed by stimulation with 5 mM ATP for an additional 45 minutes. The concentration of IL-1b concentration in the supernatant was determined with commercially available ELISA kits. Negative controls are wells without stimulation, while positive controls are wells with stimulation but only DMSO without compounds added. After background subtraction, compound treatment wells were then normalized to the positive controls for IC50 calculations.

Question: Cc1cc([C@@H](O)C2CN3CCC2CC3)nnc1-c1ccc(C(F)(F)F)cc1O (stereo partly drawn) [Compound 28B, 2-(6-((1S)-hydroxy(quinuclidin-3-yl)methyl)-4-methylpyridazin-3-yl)-5-(trifluoromethyl)phenol] was tested. Which pIC50 did it give?
Answer: 5.52 to 6.30

Question: COc1cc(C(F)(F)F)ccc1-c1nnc(C(O)C2CN(C)C2)cc1C (stereo not shown) [Compound 30, (6-(2-methoxy-4-(trifluoromethyl)phenyl)-5-methylpyridazin-3-yl)(1-methylazetidin-3-yl)methanol] was tested. Which pIC50 did it give?
Answer: 5.00 to 5.52

Question: How did the pIC50 turn out when Cc1cc(C(O)C2CN(C)C2)nnc1-c1ccc(C(F)(F)F)cc1O (stereo not shown) [Compound 31, 2-(6-(hydroxy(1-methylazetidin-3-yl)methyl)-4-methylpyridazin-3-yl)-5-(trifluoromethyl)phenol] was run?
Answer: > 6.30

Question: Cc1cc(C(O)C2CCC3CCC2N3C)nnc1-c1ccc(C(F)(F)F)cc1O (stereo not shown) [Compound 34, 2-(6-(hydroxy(8-methyl-8-azabicyclo[3.2.1]octan-2-yl)methyl)-4-methylpyridazin-3-yl)-5-(trifluoromethyl)phenol] was tested. Which pIC50 did it give?
Answer: > 6.30

Question: How did the pIC50 turn out when Cc1cc(C(O)C23CC(CN(C)C2)C3)nnc1-c1ccc(C(F)(F)F)cc1O (stereo not shown) [Compound 35, 2-(6-(hydroxy(3-methyl-3-azabicyclo[3.1.1]heptan-1-yl)methyl)-4-methylpyridazin-3-yl)-5-(trifluoromethyl)phenol] was run?
Answer: 5.52 to 6.30

Question: Cc1cc(C(O)C2CCC3CCCN3C2)nnc1-c1ccc(C(F)(F)F)cc1O (stereo not shown) [Compound 38, 2-(6-(hydroxy(octahydroindolizin-6-yl)methyl)-4-methylpyridazin-3-yl)-5-(trifluoromethyl)phenol] was tested. Which pIC50 did it give?
Answer: 5.52 to 6.30

Question: Cc1cc(C(O)C2CCCCN2C)nnc1-c1ccc(C(F)(F)F)cc1O (stereo not shown) [Compound 39, 2-(6-(hydroxy(1-methylpiperidin-2-yl)methyl)-4-methylpyridazin-3-yl)-5-(trifluoromethyl)phenol] was tested. Which pIC50 did it give?
Answer: > 6.30

Question: Cc1cc([C@H](O)[C@@H]2CCCNC2)nnc1-c1ccc(C(F)(F)F)cc1O [Compound 40, 2-(6-((R)-hydroxy((R)-piperidin-3-yl)methyl)-4-methylpyridazin-3-yl)-5-(trifluoromethyl)phenol] was tested. Which pIC50 did it give?
Answer: > 6.30

Question: With Cc1cc([C@H](O)[C@@H]2CCCN(C(C)C)C2)nnc1-c1ccc(C(F)(F)F)cc1O [Compound 41, 2-(6-((R)-hydroxy((R)-1-isopropylpiperidin-3-yl)methyl)-4-methylpyridazin-3-yl)-5-(trifluoromethyl)phenol] as the compound, how does the pIC50 read?
Answer: > 6.30

Question: Cc1cc(C(O)[C@@H]2CCCN(C)C2)nnc1-c1cc(F)c(C(F)(F)F)cc1O (stereo partly drawn) [Compound 42, 4-fluoro-2-(6-(hydroxy((R)-1-methylpiperidin-3-yl)methyl)-4-methylpyridazin-3-yl)-5-(trifluoromethyl)phenol] was tested. Which pIC50 did it give?
Answer: > 6.30

Question: With CCN1CCC[C@@H]([C@@H](O)c2cc(C)c(-c3ccc(C(F)(F)F)cc3O)nn2)C1 [Compound 45, 2-(6-((R)-((R)-1-ethylpiperidin-3-yl)(hydroxy)methyl)-4-methylpyridazin-3-yl)-5-(trifluoromethyl)phenol] as the compound, how does the pIC50 read?
Answer: > 6.30

Same assay, conditions: Monocyte; fresh human whole blood; compound 0.5 h, 100 ng/mL LPS 3.5 h at 37° C., 5 mM ATP 45 min; IL-1b in supernatant by ELISA

Question: How did the pIC50 turn out when Cc1cc(C(O)C23CCCN(CC2)C3)nnc1-c1ccc(C(F)(F)F)cc1O (stereo not shown) [Compound 29, 2-(6-((1-azabicyclo[3.2.1]octan-5-yl)(hydroxy)methyl)-4-methylpyridazin-3-yl)-5-(trifluoromethyl)phenol] was run?
Answer: 5.52 to 6.30

Question: How did the pIC50 turn out when Cc1cc(C(O)C2CCCCN(C)C2)nnc1-c1ccc(C(F)(F)F)cc1O (stereo not shown) [Compound 32, 2-(6-(hydroxy(1-methylazepan-3-yl)methyl)-4-methylpyridazin-3-yl)-5-(trifluoromethyl)phenol] was run?
Answer: > 6.30

Question: Cc1cc(C(O)C23CCC(CC2)N(C)C3)nnc1-c1ccc(C(F)(F)F)cc1O (stereo not shown) [Compound 33, 2-(6-(hydroxy(2-methyl-2-azabicyclo[2.2.2]octan-4-yl)methyl)-4-methylpyridazin-3-yl)-5-(trifluoromethyl)phenol] was tested. Which pIC50 did it give?
Answer: 5.52 to 6.30

Question: Cc1cc(C(O)C2CC3CC2N(C)C3)nnc1-c1ccc(C(F)(F)F)cc1O (stereo not shown) [Compound 36, 2-(6-(hydroxy(2-methyl-2-azabicyclo[2.2.1]heptan-6-yl)methyl)-4-methylpyridazin-3-yl)-5-(trifluoromethyl)phenol] was tested. Which pIC50 did it give?
Answer: > 6.30

Question: How did the pIC50 turn out when Cc1cc([C@H](O)[C@@H]2CC[C@H]3CCC(=O)N3C2)nnc1-c1ccc(C(F)(F)F)cc1O [Compound 37, (6R,8aS)-6-((R)-hydroxy(6-(2-hydroxy-4-(trifluoromethyl)phenyl)-5-methylpyridazin-3-yl)methyl)hexahydroindolizin-3(2H)-one] was run?
Answer: 5.52 to 6.30
